The numbers were not newly measured in patent US20260263382A1, “TRANSDERMAL PATCH COMPRISING RASAGILINE MESYLATE AND PREPARATION METHOD THEREFOR” (priority 2023, published 2026), which cites them from elsewhere.

Counter-ions that a name gives are not always drawn. Like-named read-outs stand apart in the source and are kept apart here.

For data set [1] the following is noted: oral preparations.
For data set [2] the following is noted: oral administration at 20 mg/d for 2 weeks.
The conditions of data set [3]: carried in polyacrylate or silicone pressure-sensitive adhesives or polyvinyl alcohol, free base under weakly alkaline conditions.

For `C#CCN[C@@H]1CCc2ccccc21` [Rasagiline], the Bioavailability in data set [1] is 36%. The Adverse reaction result in data set [2] is “no serious adverse reaction”. The Main drug content result in data set [3] (listed as rasagiline free base) is listed as “declines rapidly, even with complete degradation”.
As for `C#CCN[C@@H]1CCc2ccccc21` [rasagiline mesylate], the Main drug content entry in data set [3] is reported as “no change”.
